“Also recorded” adds a separate entry of the source. Like-named read-outs stand apart in the source and are kept apart here. Marks after values point to notes of the source that are not given here.
What was measured:
Type in all cases: in vivo
[1] = system: C57BL/6 mice; test: Depression model test of anti-blepharoptosis caused by reserpine (akinesia, blepharoptosis, shell temperature); settings: for Blepharoptosis, “out-of-circle” ratio and shell temperature after reserpine (effect in words) / Change in the shell temperature (T ° C.) / Degree of eye-closure / responders at 10 mg/kg / Change in the shell temperature (ΔT ° C.): 10 mg/kg intragastric 7 days; for Blepharoptosis, “out-of-circle” ratio and shell temperature after reserpine (effect in words): compared with the solvent control group; for Blepharoptosis, shell temperature and “out-of-circle” ratio compared with Compound I-1 (in words): compared with I-1, p<0.05, p<0.01; for Improving akinesia, blepharoptosis and shell temperature: ranking among the tested compounds (in words): within the experiment; for Change in the shell temperature (T ° C.) / Degree of eye-closure / responders at 10 mg/kg / Change in the shell temperature (ΔT ° C.): reserpine 4 mg/kg i.p.; for Change in the shell temperature (T ° C.) / Change in the shell temperature (ΔT ° C.): abdomen, two hours after reserpine; for Change in the shell temperature (T ° C.) / Degree of eye-closure / Change in the shell temperature (ΔT ° C.): ±SD; for Degree of eye-closure: score 0-4 one hour after reserpine; for responders at 10 mg/kg: Mus musculus, po, 1 h, one hour after reserpine, 7.5 cm circle, 15-second observation, read-out: “out-of-circle” ratio; for “out-of-circle” ratio after reserpine compared with I-1 (in words): compared with I-1, p<0.05
Protocol: 120 male C57BL/6 mice were randomly selected to observe the number of their autonomic activity. The mice was placed into the YLS-1A multi-functional mice autonomic activity recorder, and after 1 min of adaption, the activity of the mice was counted within a time period from the end of 1st min to 4th min. 96 mice with the number of autonomic activity between 70˜140 were screened out, divided randomly into 8 groups, and intragastrically administrated with the drug compounds at a dose listed in Table 3, one time daily for 7 days consecutively. The solvent control group was administrated with 2% Tween-80 aqueous solution in the same volume. Except the normal control group, 30 min after the last administration, each group was injected intraperitoneally with reserpine at a dose of 4 mg/kg. Next, akinesia, blepharoptosis and shell temperature were observed.
I Akinesia: one hour after intraperitoneal injection of reserpine, the mice were placed at the center of a circle with a diameter of 7.5 cm for a 15-second observation to calculate the “out-of-circle” ratio.
II Blepharoptosis: one hour after intraperitoneal injection of reserpine, the eye closure of mice was observed and scored by the following standard: eyelids open, 0; eyelids ¼ closed, 1; eyelids 2/4 closed, 2; eyelids ¾ closed, 3; eyelids closed completely, 4.
III Shell temperature: two hours after intraperitoneal injection of reserpine, the shell temperature of the abdomen of the mice was measured.
120 C57BL/6 mice were randomly selected to observe the number of their autonomic activity. The method was the same with that of Experiment 1. 100 mice with the number of autonomic activity between 70˜140 were screened out, divided randomly into 10 groups, and intragastrically administrated with the drug compounds at a dose listed in Table 4, one time daily for 7 days consecutively. The mice in the normal group and the solvent control group were administrated with 2% Tween-80 aqueous solution in the same volume. Except the normal control group, 30 min after the last administration, each group was injected intraperitoneally with reserpine at a dose of 4 mg/kg. Next, akinesia, blepharoptosis and shell temperature were observed. Observation method was the same with that of Experiment 1.

[2] = system: C57BL/6 mice; test: Forced swimming experiment in mice; settings: for Immobility time in the forced swimming test in mice(s): 30 min after last administration, end of 2nd min to 6th min; for Effect on immobility time in the forced swimming test (in words): within the dosage range (5-10 mg/kg), compared with the solvent control group
Protocol: After 1˜2 days of adaptive feed, 80 male C57BL/6 mice, aged 6˜8 weeks and weighing 18˜22 g, were placed into the YLS-1A multi-functional mice autonomic activity recorder. After 1 min of adaption, the activity of the mice was counted within a time period from the end of 1st min to 4th min. 60 mice with the number of autonomic activity between 70˜140 were screened out, divided randomly into 6 groups, and intragastrically administrated with the drug compounds at a dose listed in Table 5, one time daily for 7 days consecutively. The solvent control group was administrated with 2% Tween-80 aqueous solution in the same volume. After the administration at 6th day, the mice were placed into a cylindrical aquarium with a water depth of 10 cm and 25° C. to force the mice to swim. After 15 min, the mice were taken out, dried and returned to the cage. 24 hours later, 30 min after the last intragastrical administration, the mice were placed into a glass bottle with a diameter of 10 cm, a height of 30 cm and a water depth of 10 cm, and the temperature of the water in the bottle was at 25° C. The mice were separated with an opaque partition, so as not to influence each other. After 2 min of adaption, an accumulated immobility time from the end of 2nd min to 6th min was recorded.

[3] = system: C57BL/6 mice; test: "Acquired despair" depression model of tail suspension test in mice; settings: for Effect on immobility time in tail suspension test (in words): 10 mg/kg intragastric for 7 days, compared with the solvent control group; for Effect on antagonizing immobility in tail suspension test compared with I-1 (in words): 10 mg/kg, compared with I-1, p<0.05
Protocol: 30 min after administration at 7th day, the mice was fixed on a sustainer with a rubberized cloth at 1 cm close to the end of the tail of mice, making the mice hanged upside down. The head of the mice was about 30 cm above the table and its sight was separated from the neighboring mouse with a plate. Usually, the mice might manage to struggle in hopes of overcoming the abnormal body position. […] The accumulated immobility time within 6 min of each mouse was observed, which was regarded as “despair time”.
(§1) 130 mice were randomly selected to observe the number of their autonomic activity. The method was the same with that of Experiment 1. 108 mice with the number of autonomic activity between 70˜140 were screened out, divided randomly into 9 groups, and intragastrically administrated with the drug compounds at a dose listed in Table 2, one time daily for 7 days consecutively. The solvent control group was administrated with 2% Tween-80 aqueous solution in the same volume. 30 min after administration at 6th day, the number of the autonomic activity of each mouse was observed. 30 min after administration at 7th day, the immobility time in tail suspension test was observed. The method was the same with that in Experiment 1.

[4] = system: C57BL/6 mice; test: Number of autonomic activity of mice (YLS-1A autonomic activity recorder); settings: for Effect on autonomic activity of mice (in words): 10 mg/kg intragastric, one week, compared with the solvent control group; for Number of Autonomic activity (time): 10 mg/kg intragastric once daily, counted 30 min after administration at 6th day
Protocol: 110 mice were randomly selected to observe the number of their autonomic activity. The mice was placed into the YLS-1A multi-functional mice autonomic activity recorder, and after 1 min of adaption, the mice's activity was counted within a time period from the end of 1st min to 4th min. 96 mice with the number of autonomic activity between 70˜140 were screened out, divided randomly into 8 groups, and intragastrically administrated with the drug compounds at a dose listed in Table 1, one time daily for 7 days consecutively. The solvent control group was administrated with 2% Tween-80 aqueous solution in the same volume. All mice were placed into the autonomic activity recorder 30 min after administration at 6th day. After 1 min of adaption, the mice's activity was counted within a time period from the end of 1st min to 4th min.
as §1

[5] = system: mice; test: Anti-depression effect in the tested models (overall conclusion); settings: in the tested model at the tested dose
Excerpt: Based on the aforesaid experiments, the following conclusion can be drawn: • 1.

[6] = 10 mg/kg intragastric once daily for 7 days
[7] = Experiment 1, end of 1st min to 4th min

| SMILES | Blepharoptosis, “out-of-circle” ratio and shell temperature after reserpine (effect in words) [1] | Blepharoptosis, shell temperature and “out-of-circle” ratio compared with Compound I-1 (in words) ([1]; 10 mg/kg) | Improving akinesia, blepharoptosis and shell temperature: ranking among the tested compounds (in words) ([1]; 10 mg/kg) | Change in the shell temperature (T ° C.) ([1]; Experiment 2) [°C] | Degree of eye-closure ([1]; Experiment 2) | responders at 10 mg/kg ([1]; Experiment 2) [%] | Immobility time in the forced swimming test in mice(s) [2, 6] [s] | Effect on immobility time in the forced swimming test (in words) [2] | Effect on immobility time in tail suspension test (in words) [3] | Effect on autonomic activity of mice (in words) [4] | Number of Autonomic activity (time) ([4]; Experiment 2) | Anti-depression effect compared with the pharmacologic effect of I-1 (in words) [5] | Degree of eye closure / blepharoptosis after reserpine compared with I-1 (in words) ([1]; 10 mg/kg) | “out-of-circle” ratio after reserpine compared with I-1 (in words) ([1]; 10 mg/kg) | Change in the shell temperature (ΔT ° C.) ([1]; Experiment 1) [°C] | Degree of eye-closure ([1]; Experiment 1) | responders at 10 mg/kg ([1]; Experiment 1) [%] | Effect on antagonizing immobility in tail suspension test compared with I-1 (in words) [3] | Number of Autonomic activity (time) [4, 7] [time] | also measured |
| --- | --- | --- | --- | --- | --- | --- | --- | --- | --- | --- | --- | --- | --- | --- | --- | --- | --- | --- | --- | --- |
| O=C(c1cc2c(c(C(F)(F)F)c1)OCO2)N1CCCCC1 [Compound I-13, 1-(5-trifluoromethyl-3,4-methylenedioxybenzoyl)-piperidine] | remarkably improve; also recorded: antagonizing the decrease of shell temperature, akinesia and improving the degree of eye closure | significantly improved effect | better effects | 30.20 ± 0.95 | 0.90 ± 0.88 | 70 | 76.00 ± 32.32 | shortening the immobility time; also recorded: shorten the immobility time | reduce the immobility time of the mice in tail suspension test significantly; also recorded: significantly shorten the immobility time | had no effect | 87.40 ± 22.39 | increased to some degree |  |  |  |  |  |  |  | Improvement in eye closure and shell temperature compared with fluoxetine (in words) ([1]; 10 mg/kg, compared with fluoxetine, p<0.05): better effect to a certain degree |
| CC(C)CNC(=O)/C=C/c1cc2c(c(C(F)(F)F)c1)OCO2 [Compound I-5, N-isobutyl-5′-trifluoromethyl-3′,4′-methylenedioxy cinnamamide] | improved significantly; also recorded: antagonizing the decrease of shell temperature, akinesia and improving the degree of eye closure |  | best effect |  |  |  | 78.58 ± 35.70 | shortening the immobility time; also recorded: shorten the immobility time | remarkably reduce the immobility time; also recorded: reduce the immobility time of the mice in tail suspension test significantly; also recorded: significantly shorten the immobility time | had no affect; also recorded: had no effect | 99.40 ± 19.67 | increased to some degree | reduced | increased markedly | 1.32 ± 0.16 | 0.42 ± 0.79**^ΔΔ | 92 | better effect | 94.75 ± 23.98 | Immobility time in the forced swimming test in mice(s) ([2]; 5 mg/kg (low dose) intragastric once daily for 7 days): 91.20 ± 43.09 s; Dose dependence of the effect on immobility time in the forced swimming test ([2]; 5 and 10 mg/kg): dose-dependent effect |
| CC(C)CNC(=O)CCc1cc2c(c(C(F)(F)F)c1)OCO2 [Compound I-11, N-isobutyl-3-(5′-trifluoromethyl-3′,4′-methylenedioxyphenyl)-propionamide] | remarkably improve; also recorded: antagonizing the decrease of shell temperature, akinesia and improving the degree of eye closure | significantly improved effect | better effects | 30.20 ± 0.95 | 1.40 ± 0.97 | 50 |  |  | reduce the immobility time of the mice in tail suspension test significantly; also recorded: significantly shorten the immobility time | had no effect | 86.60 ± 23.08 | increased to some degree |  |  |  |  |  |  |  |  |
| CC(C)CNC(=O)/C=C/c1cc(Cl)c2c(c1)OCO2 [Compound I-4, N-isobutyl-5′-chloro-3′,4′-methylenedioxy cinnamamide] | improved significantly; also recorded: antagonizing the decrease of shell temperature, akinesia and improving the degree of eye closure |  | best effect |  |  |  |  |  | remarkably reduce the immobility time; also recorded: significantly shorten the immobility time | had no affect |  | increased to some degree | reduced | increased markedly | 1.51 ± 0.31 | 0.17 ± 0.39**^ΔΔ | 100 | better effect | 94.75 ± 28.53 |  |
